One assay relates to Staphylococcus aureus. The assay is described as follows: Antimicrobial activity against Staphylococcus aureus 8325 incubated for 12 hrs by agar diffusion method. It counts as functional.
The next assay deals with Bacillus subtilis. The assay can be described thus: Antimicrobial activity against Bacillus subtilis incubated for 12 hrs by agar diffusion method. It counts as functional.
Another assay relates to Pseudomonas aeruginosa. The assay is described as follows: Antimicrobial activity against Pseudomonas aeruginosa PAO1 incubated for 12 hrs by agar diffusion method. The assay is classed as functional.
A further assay deals with Candida albicans. The assay can be described thus: Antimicrobial activity against Candida albicans IBT 656 incubated for 24 hrs by broth dilution method. It counts as functional.
Assay [1] relates to LNCaP. The assay is described as follows: Cytotoxicity against human LNCaP cells assessed as inhibition of cell growth incubated for 72 hrs by CellTox Green cytotoxicity assay. It counts as functional, cell-based.
The subject of assay [2] is LNCaP C4-2B. The assay is described as follows: Cytotoxicity against human LNCaP C4-2B cells assessed as inhibition of cell growth incubated for 72 hrs by CellTox Green cytotoxicity assay. The assay is classed as functional, cell-based.
Assay [3] has as its system LNCaP. The assay is described as follows: Cytotoxicity against drug resistant human LNCaP cells assessed as inhibition of cell growth incubated for 72 hrs by CellTox Green cytotoxicity assay. The assay is classed as functional, cell-based.
The test system of assay [4] is LNCaP C4-2B. The assay can be described thus: Cytotoxicity against drug resistant human LNCaP C4-2B cells assessed as inhibition of cell growth incubated for 72 hrs by CellTox Green cytotoxicity assay. The assay is classed as functional, cell-based.

For the molecule `CCC/C=C\c1ccccc1/C=C/C(=O)N[C@H](Cc1ccc(O)cc1)C(=O)N(C)[C@@H](Cc1ccc(OC)c(O)c1Cl)C(=O)N(C)[C@@H](Cc1ccccc1)C(=O)O`, the MIC against Staphylococcus aureus, in the assay on Bacillus subtilis, in the assay on Pseudomonas aeruginosa and with Candida albicans was above 50 µg/mL throughout. The IC50 with LNCaP [1], in the assay on LNCaP C4-2B [2], with LNCaP [3] and with LNCaP C4-2B [4] was above 10 µM throughout.

Consider `CCC/C=C\c1ccccc1/C=C/C(=O)N[C@H](Cc1ccc(O)cc1)C(=O)N(C)[C@@H](Cc1ccc(OC)c(O)c1)C(=O)N(C)[C@@H](Cc1ccccc1)C(=O)OC[C@H]1NC(=O)CNC1=O`, for which the MIC against Staphylococcus aureus, with Bacillus subtilis, with Pseudomonas aeruginosa and in the assay on Candida albicans was above 50 µg/mL in each case. The IC50 with LNCaP [1], in the assay with LNCaP C4-2B [2], with LNCaP [3] and with LNCaP C4-2B [4] was above 10 µM throughout.

`CCC/C=C\c1ccccc1/C=C/C(=O)N[C@H](Cc1ccc(O)cc1)C(=O)N(C)[C@@H](Cc1ccc(OC)c(O)c1)C(=O)N(C)[C@@H](Cc1ccccc1)C(=O)O`: the MIC in the assay on Staphylococcus aureus, in the assay on Bacillus subtilis, in the assay on Pseudomonas aeruginosa and in the assay on Candida albicans was above 50 µg/mL each time.

Turning to `CCC/C=C\c1ccccc1/C=C/C(=O)N[C@H](Cc1ccc(O)cc1)C(=O)N(C)[C@@H](Cc1ccc(OC)c(O)c1Cl)C(=O)N(C)[C@@H](Cc1ccccc1)C(=O)OC[C@H]1NC(=O)CNC1=O`, the MIC in the assay on Staphylococcus aureus, against Bacillus subtilis, in the assay on Pseudomonas aeruginosa and in the assay with Candida albicans was above 50 µg/mL each time. Also, the IC50 with LNCaP [1], with LNCaP C4-2B [2], in the assay with LNCaP [3] and with LNCaP C4-2B [4] was above 10 µM throughout.

The values above are taken from ChEMBL document CHEMBL5385954, “Pepticinnamins N, O, and P, Nonribosomal Peptides from the Soil-Derived Streptomyces mirabilis P8-A2” (J Nat Prod, 2024).
